Values of other authors in article PMC11672637, “7-O-Carboxylic Acid-Substituted 3-O-Alkyl Difluoroquercetin; An Aztreonam-Potentiating Agent Against Carbapenemase-Producing Pseudomonas aeruginosa Through Simultaneous Inhibition of Metallo-β-Lactamase and Efflux Pump” (Antibiotics, 2024).

Tests used:
Set-up in all cases: method as in earlier work
Conditions in all cases: Table S1; cited from earlier work
[1] = test system: Ambler Class A β-lactamases
[2] = test system: Ambler Class C β-lactamases
[3] = test system: Ambler Class D β-lactamases

NC(=O)[C@@H]1CC[C@@H]2CN1C(=O)N2OS(=O)(=O)O [AVI, avibactam]
inhibits: BLi activity (Ambler Class A) [1] | BLi activity (Ambler Class C) [2] | BLi activity (Ambler Class D) [3]
